Measured values from PMC4854315, “Discovery of a novel allosteric inhibitor-binding site in ERK5: comparison with the canonical kinase hinge ATP-binding site” (Acta Crystallographica. Section D, Structural Biology, 2016).

What was measured:
Assay in all cases: Z'-LYTE kinase panel
Type in all cases: biochemical
[1] = biological target: T1, PRKCA (PKC alpha) (Homo sapiens, UniProt P17252)
T1 construct: purchased ThermoFisher (SelectScreen, Z'-LYTE)
Procedure, shortened: (§1)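 Compounds were profiled across a 225-kinase standard panel. Each kinase was run in the standard Z′-LYTE assay and percentage inhibition was recorded at a compound concentration of 10 µM.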

[2] = biological target: T2, PLK1 (Homo sapiens, UniProt P53350)
T2 construct: purchased ThermoFisher (SelectScreen, Z'-LYTE)
Procedure, shortened: as §1

[3] = biological target: T3, DYRK1B (Homo sapiens, UniProt Q9Y463)
T3 construct: purchased ThermoFisher (SelectScreen, Z'-LYTE)
Procedure, shortened: as §1

[4] = biological target: T4, FLT4 (VEGFR3) (Homo sapiens, UniProt P35916); details: 10 µM compound, ATP Km app
T4 construct: purchased ThermoFisher (SelectScreen, Z'-LYTE)
Procedure, shortened: as §1

[5] = biological target: T5, NTRK3 (TRKC) (Homo sapiens, UniProt Q16288)
T5 construct: purchased ThermoFisher (SelectScreen, Z'-LYTE)
Procedure, shortened: as §1

[6] = biological target: T6, CAMK4 (CaMKIV) (Homo sapiens, UniProt Q16566)
T6 construct: purchased ThermoFisher (SelectScreen, Z'-LYTE)
Procedure, shortened: as §1

[7] = biological target: T7, MAPKAPK5 (PRAK) (Homo sapiens, UniProt Q8IW41)
T7 construct: purchased ThermoFisher (SelectScreen, Z'-LYTE)
T7 sequence (Q8IW41 1-473): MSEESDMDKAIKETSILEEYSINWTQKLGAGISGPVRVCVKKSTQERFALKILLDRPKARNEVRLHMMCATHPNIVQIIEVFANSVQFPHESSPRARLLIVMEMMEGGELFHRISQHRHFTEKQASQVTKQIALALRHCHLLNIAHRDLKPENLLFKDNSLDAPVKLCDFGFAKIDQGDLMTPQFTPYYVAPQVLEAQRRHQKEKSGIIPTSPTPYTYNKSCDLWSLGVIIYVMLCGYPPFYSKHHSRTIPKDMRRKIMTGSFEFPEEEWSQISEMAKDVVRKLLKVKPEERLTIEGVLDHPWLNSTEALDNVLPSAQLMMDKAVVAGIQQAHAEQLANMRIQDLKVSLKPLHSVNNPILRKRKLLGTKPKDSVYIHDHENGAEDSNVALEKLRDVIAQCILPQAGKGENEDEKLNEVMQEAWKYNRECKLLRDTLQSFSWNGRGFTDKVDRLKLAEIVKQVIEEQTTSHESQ
Procedure, shortened: as §1

[8] = biological target: T8, BRAF (Homo sapiens, UniProt P15056); details: 10 µM compound; ATP 100
T8 construct: purchased ThermoFisher (SelectScreen, Z'-LYTE)
Procedure, shortened: as §1

[9] = biological target: T9, INSRR (IRR) (Homo sapiens, UniProt P14616)
T9 construct: purchased ThermoFisher (SelectScreen, Z'-LYTE)
Procedure, shortened: as §1

[10] = biological target: T10, MAPK10 (JNK3) (Homo sapiens, UniProt P53779); details: 10 µM compound; ATP 100
T10 construct: purchased ThermoFisher (SelectScreen, Z'-LYTE)
Procedure, shortened: as §1

[11] = biological target: T11, MAPKAPK3 (Homo sapiens, UniProt Q16644)
T11 construct: purchased ThermoFisher (SelectScreen, Z'-LYTE)
Procedure, shortened: as §1

[12] = biological target: T12, BMX (Homo sapiens, UniProt P51813)
T12 construct: purchased ThermoFisher (SelectScreen, Z'-LYTE)
T12 sequence (P51813 1-675): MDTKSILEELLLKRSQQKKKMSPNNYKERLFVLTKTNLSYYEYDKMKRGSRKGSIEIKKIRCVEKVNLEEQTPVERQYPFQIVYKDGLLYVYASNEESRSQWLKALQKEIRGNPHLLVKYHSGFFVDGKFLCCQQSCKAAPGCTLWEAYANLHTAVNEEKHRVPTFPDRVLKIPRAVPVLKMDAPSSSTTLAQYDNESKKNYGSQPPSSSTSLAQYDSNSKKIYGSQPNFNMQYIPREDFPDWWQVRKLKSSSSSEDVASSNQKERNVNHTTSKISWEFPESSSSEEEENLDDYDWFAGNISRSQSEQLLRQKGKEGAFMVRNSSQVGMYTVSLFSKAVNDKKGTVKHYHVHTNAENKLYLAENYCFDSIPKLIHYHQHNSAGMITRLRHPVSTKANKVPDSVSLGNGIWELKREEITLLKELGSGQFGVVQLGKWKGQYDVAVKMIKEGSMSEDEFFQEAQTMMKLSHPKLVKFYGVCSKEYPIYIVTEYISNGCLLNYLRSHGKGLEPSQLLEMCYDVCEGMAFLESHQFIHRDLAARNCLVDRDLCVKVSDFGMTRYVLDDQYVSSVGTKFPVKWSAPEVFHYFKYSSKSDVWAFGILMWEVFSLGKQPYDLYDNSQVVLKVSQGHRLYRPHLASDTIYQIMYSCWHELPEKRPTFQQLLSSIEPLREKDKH
Procedure, shortened: as §1

[13] = biological target: T13, PRKCG (PKC gamma) (Homo sapiens, UniProt P05129)
T13 construct: purchased ThermoFisher (SelectScreen, Z'-LYTE)
Procedure, shortened: as §1

[14] = biological target: T14, FER (Homo sapiens, UniProt P16591)
T14 construct: purchased ThermoFisher (SelectScreen, Z'-LYTE)
Procedure, shortened: as §1

[15] = biological target: T15, GSK3B (GSK3 beta) (Homo sapiens, UniProt P49841)
T15 construct: purchased ThermoFisher (SelectScreen, Z'-LYTE)
Procedure, shortened: as §1

[16] = biological target: T16, MAPK8 (JNK1) (Homo sapiens, UniProt P45983); details: 10 µM compound; ATP 100
T16 construct: purchased ThermoFisher (SelectScreen, Z'-LYTE)
Procedure, shortened: as §1

[17] = biological target: T17, FRAP1 (mTOR) (Homo sapiens, UniProt P42345)
T17 construct: purchased ThermoFisher (SelectScreen, Z'-LYTE)
Procedure, shortened: as §1

[18] = biological target: T18, ZAP70 (Homo sapiens, UniProt P43403)
T18 construct: purchased ThermoFisher (SelectScreen, Z'-LYTE)
T18 sequence (P43403 1-619): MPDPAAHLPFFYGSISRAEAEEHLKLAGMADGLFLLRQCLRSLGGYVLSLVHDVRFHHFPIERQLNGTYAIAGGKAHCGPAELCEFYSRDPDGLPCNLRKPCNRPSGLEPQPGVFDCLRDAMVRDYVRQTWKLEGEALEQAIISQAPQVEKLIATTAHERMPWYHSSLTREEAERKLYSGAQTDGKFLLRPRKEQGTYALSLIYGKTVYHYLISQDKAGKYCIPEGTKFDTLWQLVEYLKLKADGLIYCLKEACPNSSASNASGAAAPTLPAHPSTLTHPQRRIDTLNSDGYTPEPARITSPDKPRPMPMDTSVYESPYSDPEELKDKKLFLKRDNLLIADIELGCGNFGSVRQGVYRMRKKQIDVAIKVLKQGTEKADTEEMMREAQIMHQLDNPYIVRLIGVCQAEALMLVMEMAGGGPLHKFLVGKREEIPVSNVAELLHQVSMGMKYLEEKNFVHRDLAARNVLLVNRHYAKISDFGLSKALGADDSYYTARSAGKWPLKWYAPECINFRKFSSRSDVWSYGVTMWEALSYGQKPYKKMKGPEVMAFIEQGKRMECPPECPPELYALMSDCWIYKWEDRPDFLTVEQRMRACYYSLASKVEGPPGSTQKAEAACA
Procedure, shortened: as §1

T4 sequence (P35916 25-1363): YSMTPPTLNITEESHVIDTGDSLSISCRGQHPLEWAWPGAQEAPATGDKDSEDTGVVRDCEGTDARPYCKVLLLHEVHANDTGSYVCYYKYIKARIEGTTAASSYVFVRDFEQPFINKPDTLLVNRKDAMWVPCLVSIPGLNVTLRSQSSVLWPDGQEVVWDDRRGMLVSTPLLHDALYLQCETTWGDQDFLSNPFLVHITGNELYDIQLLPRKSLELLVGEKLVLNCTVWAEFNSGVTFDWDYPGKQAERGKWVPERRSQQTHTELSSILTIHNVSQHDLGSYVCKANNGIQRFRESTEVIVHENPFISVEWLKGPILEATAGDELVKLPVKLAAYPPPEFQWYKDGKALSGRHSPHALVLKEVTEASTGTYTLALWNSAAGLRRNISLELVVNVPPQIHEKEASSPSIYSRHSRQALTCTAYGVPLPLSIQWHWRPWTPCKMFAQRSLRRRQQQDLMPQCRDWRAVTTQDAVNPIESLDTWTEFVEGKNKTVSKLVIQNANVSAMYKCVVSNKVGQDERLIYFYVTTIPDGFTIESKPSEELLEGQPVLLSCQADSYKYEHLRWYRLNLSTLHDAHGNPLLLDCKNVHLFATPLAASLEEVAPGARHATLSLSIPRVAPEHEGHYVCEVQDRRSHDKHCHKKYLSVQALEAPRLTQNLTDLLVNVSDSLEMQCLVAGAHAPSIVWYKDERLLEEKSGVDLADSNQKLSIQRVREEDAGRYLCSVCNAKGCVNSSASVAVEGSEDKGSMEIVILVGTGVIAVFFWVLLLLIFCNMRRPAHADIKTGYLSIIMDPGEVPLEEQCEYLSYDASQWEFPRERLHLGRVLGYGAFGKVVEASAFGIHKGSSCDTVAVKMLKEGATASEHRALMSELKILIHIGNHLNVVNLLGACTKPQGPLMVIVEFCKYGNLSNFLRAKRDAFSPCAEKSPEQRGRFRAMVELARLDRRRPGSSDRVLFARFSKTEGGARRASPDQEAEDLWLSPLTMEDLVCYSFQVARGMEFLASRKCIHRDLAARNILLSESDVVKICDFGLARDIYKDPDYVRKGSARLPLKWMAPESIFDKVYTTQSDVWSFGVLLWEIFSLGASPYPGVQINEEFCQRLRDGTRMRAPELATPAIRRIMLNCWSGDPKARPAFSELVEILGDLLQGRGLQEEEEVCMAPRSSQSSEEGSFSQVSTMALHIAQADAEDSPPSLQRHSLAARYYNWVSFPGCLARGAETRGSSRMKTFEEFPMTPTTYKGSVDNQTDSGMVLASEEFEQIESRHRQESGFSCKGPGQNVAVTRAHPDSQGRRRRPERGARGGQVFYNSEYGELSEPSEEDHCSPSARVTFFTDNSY
T8 sequence (P15056 whole entry): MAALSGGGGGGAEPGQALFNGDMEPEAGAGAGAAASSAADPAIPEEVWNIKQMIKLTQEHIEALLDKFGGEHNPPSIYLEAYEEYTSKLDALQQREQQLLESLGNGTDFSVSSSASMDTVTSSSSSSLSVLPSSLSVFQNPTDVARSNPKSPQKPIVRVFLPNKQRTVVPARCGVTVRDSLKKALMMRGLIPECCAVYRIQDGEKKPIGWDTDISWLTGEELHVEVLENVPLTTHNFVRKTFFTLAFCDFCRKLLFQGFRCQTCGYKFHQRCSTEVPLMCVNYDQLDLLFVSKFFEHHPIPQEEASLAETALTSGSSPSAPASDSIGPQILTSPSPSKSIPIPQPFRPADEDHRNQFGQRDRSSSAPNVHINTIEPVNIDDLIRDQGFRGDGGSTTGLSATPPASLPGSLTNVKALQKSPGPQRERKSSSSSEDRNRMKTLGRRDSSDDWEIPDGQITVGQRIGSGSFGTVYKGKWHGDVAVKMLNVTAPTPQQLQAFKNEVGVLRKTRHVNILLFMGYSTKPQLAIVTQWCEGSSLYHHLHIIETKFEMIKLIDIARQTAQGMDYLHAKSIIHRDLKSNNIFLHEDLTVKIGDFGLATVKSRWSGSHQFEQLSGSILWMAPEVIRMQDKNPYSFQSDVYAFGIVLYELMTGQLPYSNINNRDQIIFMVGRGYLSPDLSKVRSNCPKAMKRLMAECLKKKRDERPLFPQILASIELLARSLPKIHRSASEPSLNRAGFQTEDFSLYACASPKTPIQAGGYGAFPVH
T11 sequence (Q16644 whole entry): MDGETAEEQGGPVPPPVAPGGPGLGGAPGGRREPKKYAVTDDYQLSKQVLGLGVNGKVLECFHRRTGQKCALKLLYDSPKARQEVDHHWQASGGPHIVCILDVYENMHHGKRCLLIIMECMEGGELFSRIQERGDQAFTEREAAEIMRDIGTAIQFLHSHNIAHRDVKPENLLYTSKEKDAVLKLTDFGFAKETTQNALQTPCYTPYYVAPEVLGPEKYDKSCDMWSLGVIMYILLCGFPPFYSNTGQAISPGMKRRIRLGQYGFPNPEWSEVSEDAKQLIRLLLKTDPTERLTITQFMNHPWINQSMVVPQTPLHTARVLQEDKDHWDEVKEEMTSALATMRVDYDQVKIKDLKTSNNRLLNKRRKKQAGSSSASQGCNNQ
T10 sequence (P53779 whole entry): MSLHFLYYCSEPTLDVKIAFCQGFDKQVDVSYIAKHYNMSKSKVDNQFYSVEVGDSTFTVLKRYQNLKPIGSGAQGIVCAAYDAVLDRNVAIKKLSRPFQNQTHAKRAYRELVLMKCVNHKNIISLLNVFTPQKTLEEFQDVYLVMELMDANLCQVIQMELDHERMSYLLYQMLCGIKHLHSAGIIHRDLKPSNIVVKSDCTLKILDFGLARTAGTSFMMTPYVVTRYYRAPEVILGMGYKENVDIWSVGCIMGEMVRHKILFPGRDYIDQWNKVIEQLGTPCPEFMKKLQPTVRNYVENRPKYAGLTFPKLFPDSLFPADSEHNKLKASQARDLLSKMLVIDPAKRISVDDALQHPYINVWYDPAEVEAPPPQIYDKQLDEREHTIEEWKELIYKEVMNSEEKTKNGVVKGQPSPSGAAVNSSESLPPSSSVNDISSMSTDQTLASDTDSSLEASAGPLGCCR
T2 sequence (P53350 whole entry): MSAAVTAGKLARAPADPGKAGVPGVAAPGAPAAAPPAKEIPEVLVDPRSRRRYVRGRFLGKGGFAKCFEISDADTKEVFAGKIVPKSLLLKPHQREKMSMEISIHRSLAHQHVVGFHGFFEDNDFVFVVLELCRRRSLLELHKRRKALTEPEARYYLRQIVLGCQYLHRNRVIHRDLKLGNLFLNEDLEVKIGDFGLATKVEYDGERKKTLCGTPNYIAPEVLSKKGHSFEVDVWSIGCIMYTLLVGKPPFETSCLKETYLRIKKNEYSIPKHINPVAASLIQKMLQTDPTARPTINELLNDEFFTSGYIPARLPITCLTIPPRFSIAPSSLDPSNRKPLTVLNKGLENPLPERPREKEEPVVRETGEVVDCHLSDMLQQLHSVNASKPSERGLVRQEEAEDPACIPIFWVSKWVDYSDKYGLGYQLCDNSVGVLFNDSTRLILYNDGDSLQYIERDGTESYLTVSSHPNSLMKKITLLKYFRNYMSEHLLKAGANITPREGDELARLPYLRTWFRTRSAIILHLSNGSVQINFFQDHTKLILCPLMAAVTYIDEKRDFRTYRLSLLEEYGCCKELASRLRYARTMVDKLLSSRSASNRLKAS
T15 sequence (P49841 whole entry): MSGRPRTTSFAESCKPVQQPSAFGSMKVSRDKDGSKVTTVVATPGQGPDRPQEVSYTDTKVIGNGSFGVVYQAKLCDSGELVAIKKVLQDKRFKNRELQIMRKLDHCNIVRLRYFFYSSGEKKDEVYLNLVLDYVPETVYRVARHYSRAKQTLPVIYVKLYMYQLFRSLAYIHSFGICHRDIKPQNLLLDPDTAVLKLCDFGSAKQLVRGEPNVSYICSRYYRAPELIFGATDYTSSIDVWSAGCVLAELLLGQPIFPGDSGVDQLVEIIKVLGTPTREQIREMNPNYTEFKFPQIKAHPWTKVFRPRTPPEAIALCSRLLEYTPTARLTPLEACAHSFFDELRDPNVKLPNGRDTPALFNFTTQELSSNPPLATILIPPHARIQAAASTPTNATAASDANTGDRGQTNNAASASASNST

Cc1ncc(-c2nc(Nc3ccc(C(=O)NCCN4CCCCC4)cc3)ncc2F)n1C(C)C [Compound 3]
inhibition at 10 µM [1]: 102% | inhibition at 10 µM [2]: 57% | inhibition at 10 µM [3]: 100% | inhibition at 10 µM [4]: 99% | inhibition at 10 µM [5]: 79% | inhibition at 10 µM [6]: 8% | inhibition at 10 µM [7]: 45% | inhibition at 10 µM [8]: 90% | inhibition at 10 µM [9]: 105% | inhibition at 10 µM [10]: 77% | inhibition at 10 µM [11]: 18% | inhibition at 10 µM [12]: 68% | inhibition at 10 µM [13]: 89% | inhibition at 10 µM [14]: 105% | inhibition at 10 µM [15]: 101% | inhibition at 10 µM [16]: 96% | inhibition at 10 µM [17]: 44% | inhibition at 10 µM [18]: 19%

Cc1cc(Nc2nc(N)nn2C(=O)NC(C)C)ccc1Cl [Compound 5]
inhibition at 10 µM [1]: 7% | inhibition at 10 µM [2]: 0.455% | inhibition at 10 µM [3]: -4% | inhibition at 10 µM [4]: > 80% | FLT4 (VEGFR3) % Inhibition ([4]; listed as SN1109056190, 10 µM): 86% | inhibition at 10 µM [5]: 52% | inhibition at 10 µM [6]: -10% | inhibition at 10 µM [7]: -3.49% | inhibition at 10 µM [8]: 12% | inhibition at 10 µM [9]: 5.63% | inhibition at 10 µM [10]: 2.76% | inhibition at 10 µM [11]: -5% | inhibition at 10 µM [12]: 19% | inhibition at 10 µM [13]: 10% | inhibition at 10 µM [14]: 22% | inhibition at 10 µM [15]: 79% | inhibition at 10 µM [16]: -11% | inhibition at 10 µM [17]: -12% | inhibition at 10 µM [18]: 12%

XMD8-92 [Compound 2, reference compound]
PRKCA (PKC alpha) % Inhibition ([1]; 10 µM compound, ATP Km app): 47% | PLK1 % Inhibition ([2]; 10 µM compound, ATP Km app): 10% | DYRK1B % Inhibition ([3]; 10 µM compound, ATP Km app): 12% | FLT4 (VEGFR3) % Inhibition [4]: 4% | NTRK3 (TRKC) % Inhibition ([5]; 10 µM compound, ATP Km app): 64% | CAMK4 (CaMKIV) % Inhibition ([6]; 10 µM compound, ATP Km app): 3% | MAPKAPK5 (PRAK) % Inhibition ([7]; 10 µM compound, ATP Km app): 11% | BRAF % Inhibition [8]: 15% | INSRR (IRR) % Inhibition ([9]; 10 µM compound, ATP Km app): 21% | MAPK10 (JNK3) % Inhibition [10]: 9% | MAPKAPK3 % Inhibition ([11]; 10 µM compound, ATP Km app): 96% | BMX % Inhibition ([12]; 10 µM compound, ATP Km app): 41% | PRKCG (PKC gamma) % Inhibition ([13]; 10 µM compound, ATP Km app): 62% | FER % Inhibition ([14]; 10 µM compound, ATP Km app): 79% | GSK3B (GSK3 beta) % Inhibition ([15]; 10 µM compound, ATP Km app): 88% | MAPK8 (JNK1) % Inhibition [16]: 14% | FRAP1 (mTOR) % Inhibition ([17]; 10 µM compound, ATP Km app): -15% | ZAP70 % Inhibition ([18]; 10 µM compound, ATP Km app): 12%
